Literature values as cited in patent US7411005B2, “Compositions and methods for increasing milk production in animals” (Van Beek Natural Science, LLC, priority 2002, dated 2008).

Settings: inactive metabolites after degradation by enzymes

| metabolites excreted in the urine | metabolites expired from the lungs in the form of CO2 [%] | Compound |
| --- | --- | --- |
| approx. 90% | 10 | Cc1ccc(C(C)C)cc1O [isopropyl-o-cresol, 5-isopropyl-2-methylphenol] |
| approx. 90% | 10 | Cc1ccc(C(C)C)c(O)c1 [isopropyl-cresol, 5-methyl-2[1-methylethyl]phenol] |
